The record followed here is ChEMBL document CHEMBL1201862, “PubChem BioAssay data set” (2004).

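Protocol summary: plate cells (96-well), add compound at 5 concentrations, incubate 48 h, interpolate endpoints linearly. The concentration for 50% growth inhibition is given as GI50.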 Activity calls are given as the source filed them. Cut-off read from the data, not from the text of the source: active = GI50 up to about 1.1 µM and inactive = higher.

Some test systems named below: 786-0; CCRF-CEM; DMS-273; HCT-15; HL-60; IGROV-1; K562; KM12; LOX IMVI; M14; MCF7; NCI-H23; OVCAR-4; RXF 393; SF-295; SF-539; SW-620; U-251; UACC-257; HOP-62.
Holding throughout (test): inhibition of tumour cell growth, NCI panel, 48 h

`C/C(=N\NC(=S)N1CCC(N2CCCCC2)CC1)c1ccccn1`: the GI50 in the test with 786-0 is 12.7 µM (inactive); in the test on CCRF-CEM it was 0.661 µM (active); in the test with DMS-273, 2.81 µM (inactive); in the test with HCT-15 it was 2.4 µM; with HL-60, 0.796 µM (active); in the test on IGROV-1, 3.54 µM (inactive). For the same compound, the GI50 in the test with K562 was 1.29 µM (inactive); in the test on KM12, 2.81 µM (inactive); with LOX IMVI, 2.82 µM (inactive); in the test on M14, 1.87 µM (inactive); in the test on MCF7, 2.87 µM (inactive); in the test on NCI-H23, 3.29 µM (inactive). Further, the GI50 in the test with OVCAR-4 is 4.73 µM (inactive); with RXF 393, 1.36 µM (inactive); in the test on SF-295, 2.28 µM (inactive); in the test with SF-539 it was 3.11 µM (inactive); in the test on SW-620 it was 3.1 µM (inactive); in the test on U-251, 3.8 µM (inactive). For the same compound, the GI50 in the test with UACC-257 was 2.9 µM (inactive).

With `CCOP(=O)(OCC)C1CCCCOC1=O` (configuration not stated), the GI50 in the test with 786-0 was > 100 µM (inactive); with CCRF-CEM, 76.7 µM (inactive); in the test with DMS-273, > 100 µM (inactive); in the test with HCT-15 it was above 100 µM; in the test on HL-60, > 100 µM (inactive); in the test with HOP-62 it was > 100 µM (inactive). The GI50 in the test with IGROV-1 was > 100 µM (inactive); with K562, 44 µM (inactive); with KM12, > 100 µM (inactive); in the test with LOX IMVI it was 19.9 µM (inactive); in the test on M14 it was > 100 µM (inactive); in the test on NCI-H23 it was > 100 µM (inactive). For the same compound, the GI50 with OVCAR-4, in the test on RXF 393, in the test on SF-295, in the test on SF-539, in the test on SW-620 and in the test with U-251 was > 100 µM (inactive) each time. Further, the GI50 with UACC-257 is > 100 µM (inactive).

On to `CN(C)CC1CC/C(=C\c2ccc(Cl)c(Cl)c2)C1=O` (configuration not stated), for which the GI50 is 11.7 µM (inactive) in the test on 786-0; 2.49 µM (inactive) in the test with CCRF-CEM; 28.8 µM (inactive) with DMS-273; 12.7 µM in the test with HCT-15; 0.586 µM (active) in the test with HL-60; > 58.2 µM (inactive) in the test on HOP-62. The GI50 in the test with IGROV-1 is > 50.4 µM (inactive); in the test on K562, 5.58 µM (inactive); in the test with KM12, 11.5 µM (inactive); in the test on LOX IMVI, 13.5 µM (inactive); in the test on M14, 18.9 µM (inactive); in the test with NCI-H23 it was 20.6 µM (inactive). The GI50 with OVCAR-4 was 19 µM (inactive); with RXF 393 it was > 45.4 µM (inactive); in the test on SF-295, 48.6 µM (inactive); in the test with SF-539 it was > 40.5 µM (inactive); in the test with SW-620 it was 24.3 µM (inactive); with U-251, > 42.3 µM (inactive). Besides, the GI50 in the test on UACC-257 is 24.7 µM (inactive).
